Values of other authors as cited in US20090047371A1, “PHARMACEUTICAL COMPOSITION COMPRISING CURCUMIN AND RESVERATROL AND USES THEREOF IN MEDICAL FIELD” (SAFI INVESTMENT HOLDING AG, priority 2005, published 2009).

System: hair loss
Settings: many cases in India and in Europe where Curcumin has been employed

Which effect on hair does the source give for COc1cc(/C=C/C(=O)CC(=O)/C=C/c2ccc(O)c(OC)c2)ccc1O [Curcumin, curcumin] here?
The effect on hair was “any effect on hair has never been reported”.
